Laboratory results from patent US8865662B2, “Macrolides and their use” (Basilea Pharmaceutica AG, priority 2009, dated 2014).
pIC50: −log10 of the molar value.

test system: human PDE4; assay: IMAP FP enzymatic assay of PDE4 inhibition; format: biochemical; settings: PDE4 partially purified from human monocytic U-937 cells; fluorescently labeled cAMP substrate; 90 minutes at room temperature; fluorescence polarization
Protocol: PDE4 specifically hydrolyzes cAMP and releases the product AMP. The potency of PDE inhibition by said agents is determined in an in vitro enzymatic assay. The assay is commercially available (IMAP™ FP assay Molecular Devices Corp. (MDS)) and is optimized for the use of human PDE4. Fluorescently labeled cAMP is hydrolyzed by PDE4 and in a second step, binding of labeled product to a large binding partner allowed product detection by fluorescence polarization (FP) measurements.
PDE4 is partially purified from undifferentiated human monocytic cells (U-937) according to Thorpy et al. 1992 (J. Pharmacol. Exp. Ther. 263: 1195). […] In addition, PDE4 preparations are validated by inhibition studies with PDE4-specific and unspecific PDE inhibitors.
Stock solutions of test compounds are made in DMSO and diluted in assay buffer (10 mM Tris-HCl, 10 mM MgCl2, 0.1% BSA 0.05% NaN3, pH 7.2) to the desired concentrations. The solutions used in the assay contained test compound in assay buffer with 2% DMSO.
10 μl of substrate (at a concentration recommended by the manufacturer) are mixed with 5 μl of appropriately diluted PDE and 5 μl of test compound solution. 5 μl of reaction buffer with 2% DMSO are used for control reactions. […] After incubation for 90 minutes at room temperature, 60 μl of binding reagent are added as specified by the manufacturer. Binding is allowed to proceed for 30 minutes and fluorescence polarization is measured. Dose dependence of PDE inhibition is measured by assaying dilution series of test compounds in duplicates. IC50 values are determined from the measured activities by curve fitting.

Row | Compound | pIC50
1 | CC[C@H]1OC(=O)[C@H](C)[C@@H](O[C@H]2C[C@@](C)(OC)[C@@H](O)[C@H](C)O2)[C@H](C)[C@@H](O[C@@H]2O[C@H](C)C[C@H](N(C)C(=O)N3CCOCC3)[C@H]2O)[C@](C)(OC)C[C@@H](C)C(=O)[C@H](C)[C@H]2N(CCCN(Cc3c(Cl)cncc3Cl)c3ccc(OC)c(OC4CCCC4)c3)C(=O)O[C@]12C [Example 1] | 6.64
2 | CC[C@H]1OC(=O)[C@H](C)[C@@H](O)[C@H](C)[C@@H](O[C@@H]2O[C@H](C)C[C@H](N(C)C(=O)N3CCOCC3)[C@H]2O)[C@](C)(OC)C[C@@H](C)C(=O)[C@H](C)[C@H]2N(CCCN(Cc3c(Cl)cncc3Cl)c3ccc(OC)c(OC4CCCC4)c3)C(=O)O[C@]12C [Example 2] | 6.06
3 | CC[C@H]1OC(=O)[C@H](C)[C@@H](O[C@H]2C[C@@](C)(OC)[C@@H](O)[C@H](C)O2)[C@H](C)[C@@H](O[C@@H]2O[C@H](C)C[C@H](N(C)C(=O)N3CCOCC3)[C@H]2O)[C@](C)(OC)C[C@@H](C)C(=O)[C@H](C)[C@H]2N(CCCOc3cc(C(=O)Nc4c(Cl)cncc4Cl)ccc3OC)C(=O)O[C@]12C [Example 3] | 6.20
4 | CC[C@H]1OC(=O)[C@H](C)[C@@H](O)[C@H](C)[C@@H](O[C@@H]2O[C@H](C)C[C@H](N(C)C(=O)N3CCOCC3)[C@H]2O)[C@](C)(OC)C[C@@H](C)C(=O)[C@H](C)[C@H]2N(CCCOc3cc(C(=O)Nc4c(Cl)cncc4Cl)ccc3OC)C(=O)O[C@]12C [Example 4] | 7.52
5 | CC[C@H]1OC(=O)[C@H](C)[C@@H](OC(=O)CN2CCOCC2)[C@H](C)[C@@H](O[C@@H]2O[C@H](C)C[C@H](N(C)C(=O)CN(C)C)[C@H]2O)[C@](C)(OC)C[C@@H](C)C(=O)[C@H](C)[C@H]2N(CCCOc3cc(C(=O)Nc4c(Cl)cncc4Cl)ccc3OC)C(=O)O[C@]12C [Example 5] | 6.70
